Counter-ions that a name gives are not always drawn.
What follows are compounds tested against T1, human recombinant 6His-Nterm SHP2 full-length (Thr2-Arg593) (Homo sapiens, UniProt Q06124) (assay: SHP2 Phosphatase Assay (DiFMUP fluorescence)). Settings: SHP2 0.2 nM pre-incubated with 100 nM bi-phosphorylated activating peptide; compound 1000-0.05 nM, 30 min pre-incubation; DiFMUP 20 µM, 45 min, room temperature; 10-concentration dose-response.
T1 construct: 6His-Nterm SHP2 full-length (Thr2-Arg593, R&D system); 6His (N); purchased R&D system
T1 sequence (Q06124 2-593): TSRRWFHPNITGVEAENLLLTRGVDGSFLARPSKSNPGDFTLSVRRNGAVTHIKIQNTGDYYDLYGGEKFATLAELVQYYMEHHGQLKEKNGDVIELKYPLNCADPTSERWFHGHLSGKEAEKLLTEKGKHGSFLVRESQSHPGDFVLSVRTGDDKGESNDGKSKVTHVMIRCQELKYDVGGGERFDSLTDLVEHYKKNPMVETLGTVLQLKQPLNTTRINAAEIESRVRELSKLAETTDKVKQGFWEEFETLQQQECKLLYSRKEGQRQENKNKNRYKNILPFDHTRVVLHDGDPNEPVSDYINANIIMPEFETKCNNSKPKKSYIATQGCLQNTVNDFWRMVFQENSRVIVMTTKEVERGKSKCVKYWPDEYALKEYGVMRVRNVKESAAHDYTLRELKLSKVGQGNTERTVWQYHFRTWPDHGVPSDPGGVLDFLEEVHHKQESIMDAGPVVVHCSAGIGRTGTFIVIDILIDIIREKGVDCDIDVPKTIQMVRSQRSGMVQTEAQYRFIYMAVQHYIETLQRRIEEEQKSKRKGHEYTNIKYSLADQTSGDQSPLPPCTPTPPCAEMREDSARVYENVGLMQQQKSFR
Format: biochemical
In short: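 SHP2 (0.2 nM) preactivated ≥10 min with 100 nM bis-phosphorylated peptide, then 30 min with compound (10 concentrations, 1000–0.05 nM) at room temperature, pH 7.2 HEPES buffer with DTT. DiFMUP (20 µM, added solution) reacted 45 min, pervanadate-stopped; fluorescence 350/450 nm. IC50 by 4-parameter logistic fit.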
With `Cc1nc(N2CCC3(CC2)Cc2ncccc2[C@H]3N)c2c(F)cnn2c1-c1ccccc1` [Compound 143, (5S)-1'-(3-fluoro-6-methyl-7-phenyl-pyrazolo[1,5-a]pyrazin-4-yl)spiro[5,7-dihydrocyclopenta[b]pyridine-6,4'-piperidine]-5-amine hydrochloride] the IC50 was 39 nM. For `Cc1nccc(-c2c(C)nc(N3CCC4(CC3)Cc3ncccc3[C@H]4N)c3c(F)cnn23)c1Cl` [Compound 144, (5S)-1'-[7-(3-chloro-2-methyl-4-pyridyl)-3-fluoro-6-methyl-pyrazolo[1,5-a]pyrazin-4-yl]spiro[5,7-dihydrocyclopenta[b]pyridine-6,4'-piperidine]-5-amine hydrochloride], the IC50 was 17 nM. `Cc1nc(N2CCC3(CC2)Cc2ncccc2[C@H]3N)c2c(CO)cnn2c1-c1ccccc1` [Compound 145, [4-[(5S)-5-aminospiro[5,7-dihydrocyclopenta[b]pyridine-6,4'-piperidine]-1'-yl]-6-methyl-7-phenyl-pyrazolo[1,5-a]pyrazin-3-yl]methanol] was tested, and the IC50 was over 1000 nM. With `Cc1nc(N2CCC3(CC2)Cc2ncccc2[C@H]3N)c2c(C(F)F)cnn2c1-c1ccccc1` [Compound 146, (5S)-1'-[3-(difluoromethyl)-6-methyl-7-phenyl-pyrazolo [1,5-a]pyrazin-4-yl]spiro[5,7-dihydrocyclopenta[b]pyridine-6,4'-piperidine]-5-amine] the IC50 was over 1000 nM. For `Cc1nc(N2CCC3(CC2)Cc2ncccc2[C@H]3N)c2c(C(F)F)cnn2c1-c1ccccc1F` [Compound 147, (5S)-1'-[3-(difluoromethyl)-7-(2-fluorophenyl)-6-methyl-pyrazolo[1,5-a]pyrazin-4-yl]spiro[5,7-dihydrocyclopenta[b]pyridine-6,4'-piperidine]-5-amine], the IC50 was over 1000 nM. With `CCn1cc(-c2c(C)nc(N3CCC4(CC3)Cc3cc(OC)ccc3[C@H]4N)c3ccnn23)cn1` [Compound 148, (1S)-1'-[7-(1-ethylpyrazol-4-yl)-6-methyl-pyrazolo[1,5-a]pyrazin-4-yl]-5-methoxy-spiro[indane-2,4'-piperidine]-1-amine] the IC50 was 9 nM. In the case of `Cc1nc(N2CCC3(CC2)Cc2ccccc2[C@H]3N)c2ccnn2c1-c1cnn(C)c1C` [Compound 149, (1S)-1'-[7-(1,5-dimethylpyrazol-4-yl)-6-methyl-pyrazolo[1,5-a]pyrazin-4-yl]spiro[indane-2,4'-piperidine]-1-amine], the IC50 is reported as 17 nM. With `Cc1nc(N2CCC3(CC2)Cc2ccccc2[C@H]3N)c2ccnn2c1-c1cnoc1C` [Compound 150, (1S)-1'-[6-methyl-7-(5-methylisoxazol-4-yl)pyrazolo[1,5-a]pyrazin-4-yl]spiro[indane-2,4'-piperidine]-1-amine] the IC50 was 140 nM. `Cc1nccc(-c2c(C)nc(N3CCC4(CC3)Cc3ccccc3[C@H]4N)c3ccnn23)c1F` [Compound 151, (1S)-1'-[7-(3-fluoro-2-methyl-4-pyridyl)-6-methyl-pyrazolo [1 ,5-a]pyrazin-4-yl]spiro[indane-2,4'-piperidine]-1-amine] showed an IC50 of 9 nM. For `Cc1ncc(-c2c(C)nc(N3CCC4(CC3)Cc3ncccc3[C@H]4N)c3ccnn23)s1` [Compound 152, (5S)-1'-[6-methyl-7-(2-methylthiazol-5-yl)pyrazolo [1,5-a]pyrazin-4-yl]spiro[5,7-dihydrocyclopenta[b]pyridine-6,4'-piperidine] -5-amine], the IC50 was 9 nM. `Cc1nc(N2CCC3(CC2)Nc2ccccc2[C@H]3N)c2ccnn2c1-c1ccccc1F` [Compound 153, (3R)-1'-[7-(2-fluorophenyl)-6-methyl-pyrazolo[1,5-a]pyrazin-4-yl]spiro[indoline-2,4'-piperidine]-3-amine hydrochloride] gave an IC50 of 15 nM. For `Cc1nccc(-c2c(C)nc(N3CCC4(CC3)Nc3ccccc3[C@H]4N)c3ccnn23)c1Cl` [Compound 154, (3R)-1'-[7-(3-chloro-2-methyl-4-pyridyl)-6-methyl-pyrazolo[1,5-a]pyrazin-4-yl]spiro[indoline-2,4'-piperidine]-3-amine hydrochloride], the IC50 was 4 nM.
